# Data published in patent publication US8940936B2, “Aryloxy phenoxy acrylic compound having HIF-1 inhibition activity, method for preparing same, and pharmaceutical composition containing same as an active ingredient” (Korea Research Institute of Bioscience and Biotechnology, priority 2010, dated 2015).
# Values joined by “and” are separate entries in the source; they are usually repeats but may differ in a detail not shown here. Equal values may be shown once.
# Assays:
# [1] = Mouse weight changes and symptoms, repeated intravenous administration (Caki-1 model); assay type: in vivo; conditions: for Mouse weight changes (%): iv, Example 1 20 mg/kg/day, topotecan 2 mg/kg/day
# Protocol: (§1) Female nude mice at 6 weeks (BALB/c nu/nu, Charles River) were raised in a germ-free facility where temperature and humidity were maintained at proper levels during the whole experimental period. After anesthetizing each mouse, the human kidney cancer cell line Caki-1 was transplanted in kidney tissues at the density of 4×10^7 cells/mouse, and then the opened kidney was sealed with surgical clips. After transplanting the kidney cancer cell line, the tumor volume was measured with calipers. When the tumor volume reached 52.7 mm^3, the compound of the present invention prepared in example 1 was treated thereto. Particularly, for the experimental group, the compound of example 1 was dissolved in the solvent composed of cremophor (10%), DMAC (10%), and pH 10 buffer […], which is indicated as ‘solvent B’ hereinafter, at the concentration of 20 mg/kg. The prepared compound solution was intravenously administered to the experimental group mice once a day at the dose of […]. The control was treated with the solvent B only without the compound once a day via oral administration at the dose of 15 ml/kg. The comparative group was treated with the solvent B containing topotecan (2 mg/kg) via intravenous injection once a day at the dose of 15 ml/kg. The weight and the tumor volume were measured once a day on day 0, 2, 4, 7, 9, 11, and 14.
# (§2) Tumor volume was calculated by the mathematical formula 1 of Experimental Example 4. To investigate the toxicity according to the repeated intravenous administration of the compound of example 1, mouse weight changes were observed and presented in Table 5. Inhibition rate (%) in Table 6 was calculated by the mathematical formula 2, which indicates the inhibition of tumor growth by the compound presented by %.
# [2] = system: B16F10 melanoma cell line; test: Tumor growth, B16F10 melanoma in C57BL mice, intraperitoneal administration; assay type: in vivo, mouse; conditions: Example 1 20 mg/kg/day, topotecan 2 mg/kg/2 day; for Tumor volume changes (mm^3): ip; for Inhibition rate (%) of tumor volume: vs control
# Protocol: Particularly, the experimental group composed of 5 female mice (C57BL) at 6 weeks was transplanted with B16F10 melanoma cell line. After the cancer cells were grown, the mice were treated with the compound of formula 1 via intraperitoneal injection at the dose of […] for 5 days. Inhibition of angiogenesis and the tumor growth were observed. In the meantime, the control group was treated with the mixed solution comprising 10% DMAC, 10% cremophor and 80% buffer (pH 10) every day. The comparative group was treated with topotecan at the dose of 2 mg/kg once every other day. Weight changes and the newly generated blood vessels were measured and the results are shown in Table 7, Table 8, FIG. 7, and FIG. 8. The tumor volume shown in Table 8 was calculated by the mathematical formula 1 of experimental example 4 and the inhibition rate was calculated by the mathematical formula 2 of experimental example 4.
# [3] = Mouse weight changes and symptoms, repeated intravenous administration (HCT116 model); assay type: in vivo; conditions: for Mouse weight changes (%): iv once a day, Example 1 30 mg/kg, topotecan 2 mg/kg
# Protocol: Female nude mice at 6 weeks (BALB/c nu/nu, Charles River) were raised in a germ-free facility where temperature and humidity were maintained at proper levels during the whole experimental period. After anesthetizing each mouse, the human rectal cancer cell line HCT116 was transplanted in rectal tissues at the density of 4×10^7 cells/mouse, and then the opened rectum was sealed with surgical clips. After transplanting the rectal cancer cell line, the tumor volume was measured with calipers. When the tumor volume reached 54.5 mm^3, the compound of the present invention prepared in example 1 was treated thereto. Particularly, for the experimental group, the compound of example 1 was dissolved in the solvent composed of saline (80%), DMAC (10%), and tween 80 (10%), which is indicated as ‘solvent A’ hereinafter, at the concentration of 30 mg/kg. The prepared compound solution was intravenously administered to the experimental group mice once a day at the dose of […]. The control was treated with the solvent A only without the compound once a day via oral administration at the dose of 15 ml/kg. The comparative group was treated with the solvent A containing topotecan (2 mg/kg) via intravenous injection once a day at the dose of 15 ml/kg. The weight and the tumor volume were measured once a day on day 0, 2, 3, 4, 5, 6, and 8.
# Tumor volume was calculated by the following mathematical formula 1. To investigate the toxicity according to the repeated intravenous administration of the compound of example 1, mouse weight changes were observed and presented in Table 3. Inhibition rate (%) in Table 4 was calculated by the following mathematical formula 2, which indicates the inhibition of tumor growth by the compound presented by %. Tumor Volume(mm^3)=(major axis length of tumor cells, mm)×(minor axis length of tumor cells, mm)^2×0.5 [Mathematical Formula 1] Inhibition Rate (%)=[(Tumor Volume of Control−Tumor Volume of Experimental Group)/(Tumor Volume of Control)]×100 [Mathematical Formula 2]
# [4] = system: B16F10 melanoma cell line; test: Cancer metastasis inhibition activity, B16F10 melanoma lung colonies in C57BL mice; assay type: in vivo, mouse; conditions: Example 1 20 mg/kg/day, topotecan 2 mg/kg/2 day; for Metastasis colony number: day 12, ip; for Metastasis inhibition rate (%): day 12, vs control
# Protocol: Particularly, the experimental group composed of 6 female mice (C57BL) at 6 weeks was transplanted with B16F10 melanoma cell line. After the cancer cells were grown, the mice were treated with the compound of formula 1 via intraperitoneal injection at the dose of […] every day for 12 days. Inhibition of angiogenesis and the tumor growth were observed. In the meantime, the control group was treated with purified water every day. The comparative group was treated with topotecan at the dose of 2 mg/kg once every other day. Weight changes and cancer metastasis were measured and the results are shown in Table 9, Table 10, and FIG. 10.
# As shown in Table 10 and FIG. 10, the mice were sacrificed on the last day of experiment (day 12) and then cancer colonies in lung were counted by the naked eye.
# [5] = system: human kidney cancer cell line Caki-1; test: In vivo anticancer activity, intravenous injection 2, Caki-1 kidney cancer in nude mice; parameters: species or system mouse; conditions: Example 1 20 mg/kg/day, topotecan 2 mg/kg/day; for Tumor volume (mm^3) / Tumor weight: iv; for Inhibition rate (%) of tumor volume / Inhibition rate (%) of tumor weight: vs control; for Tumor weight: day 14 (final day)
# Protocol: To evaluate the inhibition effect of the compound prepared in example 1 administered via intravenous injection on the growth of kidney cancer, in vivo anticancer activity in mouse was measured. Particularly, nude-mice were grouped for experimental and control groups (5 mice per group). Changes in body weight, tumor volume, and tumor weight were measured to evaluate in vivo anticancer activity.
# as §1, §2
compound,measurement,setting,value
"COC(=O)c1cccc(NC(=O)/C=C/Oc2ccc(C34CC5CC(CC(C5)C3)C4)cc2)c1 [Example 1, (E)-3-[3-(4-Adamantan-1-yl-phenoxy)-acryloylamino]-benzoic acid methyl ester]",body weight on the final day of observation (day 14) compared with control,"[1]; 20 mg/kg iv, nude mice",not significantly reduced
same,symptoms during repeated intravenous administration,"[1]; 20 mg/kg iv, nude mice",no specific symptom was observed
same,Mouse weight changes (%),[1]; day 0,100.0 ± 0.0%
same,Mouse weight changes (%),[1]; day 2,104.7 ± 1.7%
same,Mouse weight changes (%),[1]; day 4,105.3 ± 2.2%
same,Mouse weight changes (%),[1]; day 7,105.5 ± 3.1%
same,Mouse weight changes (%),[1]; day 9,106.6 ± 4.9%
same,Mouse weight changes (%),[1]; day 11,107.3 ± 6.8%
same,Mouse weight changes (%),[1]; day 14,109.5 ± 6.4%
same,Tumor volume changes (mm^3),[2]; day 0,0.0 ± 0.0 mm^3
same,Tumor volume changes (mm^3),[2]; day 3,26.8 ± 3.6 mm^3
same,Inhibition rate (%) of tumor volume,[2]; day 3,19.7%
same,Tumor volume changes (mm^3),[2]; day 4,36.4 ± 4.8 mm^3
same,Inhibition rate (%) of tumor volume,[2]; day 4,22.5%
same,Tumor volume changes (mm^3),[2]; day 5,55.8 ± 5.8 mm^3
same,Inhibition rate (%) of tumor volume,[2]; day 5,28.9%
same,body weight on day 8 compared with control,"[3]; 30 mg/kg iv, nude mice",no significant weight loss
same,symptoms during repeated intravenous administration,"[3]; 30 mg/kg iv, nude mice",no specific symptom was observed
same,Mouse weight changes (%),[3]; day 0,100.0 ± 0.0%
same,Mouse weight changes (%),[3]; day 2,96.5 ± 2.9%
same,Mouse weight changes (%),[3]; day 3,94.7 ± 2.3%
same,Mouse weight changes (%),[3]; day 4,96.0 ± 3.5%
same,Mouse weight changes (%),[3]; day 5,100.3 ± 1.5%
same,Mouse weight changes (%),[3]; day 6,101.4 ± 2.5%
same,Mouse weight changes (%),[3]; day 8,99.9 ± 2.3%
same,Metastasis colony number,[4],207 and 207.0 ± 47.5
same,Metastasis inhibition rate (%),[4],32.5%
same,Tumor volume (mm^3),[5]; day 0,0.0 ± 0.0 mm^3
same,Tumor volume (mm^3),[5]; day 2,17.1 ± 2.0 mm^3
same,Inhibition rate (%) of tumor volume,[5]; day 2,18.4%
same,Tumor volume (mm^3),[5]; day 4,41.4 ± 13.5 mm^3
same,Inhibition rate (%) of tumor volume,[5]; day 4,21.6%
same,Tumor volume (mm^3),[5]; day 7,77.6 ± 11.8 mm^3
same,Inhibition rate (%) of tumor volume,[5]; day 7,24.2%
same,Tumor volume (mm^3),[5]; day 9,107.0 ± 18.5 mm^3
same,Inhibition rate (%) of tumor volume,[5]; day 9,28.2%
same,Tumor volume (mm^3),[5]; day 11,141.9 ± 14.8 mm^3
same,Inhibition rate (%) of tumor volume,[5]; day 11,30.6%
same,Tumor weight,[5],640.0 ± 61.8 mg
same,Tumor volume (mm^3),[5]; day 14,200.2 ± 34.2 mm^3
same,Inhibition rate (%) of tumor volume,[5]; day 14,30% and 30.9%
same,Inhibition rate (%) of tumor weight,[5]; day 14,29.6%
"CC[C@@]1(O)C(=O)OCc2c1cc1n(c2=O)Cc2cc3c(CN(C)C)c(O)ccc3nc2-1 [topotecan, reference compound]",Mouse weight changes (%),[1]; day 0,100.0 ± 0.0%
same,Mouse weight changes (%),[1]; day 2,104.7 ± 1.9%
same,Mouse weight changes (%),[1]; day 4,103.8 ± 3.8%
same,Mouse weight changes (%),[1]; day 7,103.4 ± 2.6%
same,Mouse weight changes (%),[1]; day 9,101.8 ± 3.6%
same,Mouse weight changes (%),[1]; day 11,103.0 ± 3.6%
same,Mouse weight changes (%),[1]; day 14,102.9 ± 5.3%
same,Tumor volume changes (mm^3),[2]; day 0,0.0 ± 0.0 mm^3
same,Tumor volume changes (mm^3),[2]; day 3,20.9 ± 2.6 mm^3
same,Inhibition rate (%) of tumor volume,[2]; day 3,37.4%
same,Tumor volume changes (mm^3),[2]; day 4,27.1 ± 2.3 mm^3
same,Inhibition rate (%) of tumor volume,[2]; day 4,42.4%
same,Tumor volume changes (mm^3),[2]; day 5,42.9 ± 4.5 mm^3
same,Inhibition rate (%) of tumor volume,[2]; day 5,45.4%
same,Mouse weight changes (%),[3]; day 0,100.0 ± 0.0%
same,Mouse weight changes (%),[3]; day 2,101.7 ± 1.0%
same,Mouse weight changes (%),[3]; day 3,101.8 ± 1.1%
same,Mouse weight changes (%),[3]; day 4,103.2 ± 5.4%
same,Mouse weight changes (%),[3]; day 5,99.1 ± 1.4%
same,Mouse weight changes (%),[3]; day 6,98.7 ± 1.7%
same,Mouse weight changes (%),[3]; day 8,95.6 ± 1.4%
same,Metastasis colony number,[4],148.3 ± 49.4
same,Metastasis inhibition rate (%),[4],51.7%
same,Tumor volume (mm^3),[5]; day 0,0.0 ± 0.0 mm^3
same,Tumor volume (mm^3),[5]; day 2,16.7 ± 2.3 mm^3
same,Inhibition rate (%) of tumor volume,[5]; day 2,20.1%
same,Tumor volume (mm^3),[5]; day 4,38.7 ± 4.8 mm^3
same,Inhibition rate (%) of tumor volume,[5]; day 4,26.6%
same,Tumor volume (mm^3),[5]; day 7,67.8 ± 8.6 mm^3
same,Inhibition rate (%) of tumor volume,[5]; day 7,33.8%
same,Tumor volume (mm^3),[5]; day 9,88.5 ± 19.6 mm^3
same,Inhibition rate (%) of tumor volume,[5]; day 9,40.6%
same,Tumor volume (mm^3),[5]; day 11,120.9 ± 36.0 mm^3
same,Inhibition rate (%) of tumor volume,[5]; day 11,40.9%
same,Tumor weight,[5],472.4 ± 137.6 mg
same,Tumor volume (mm^3),[5]; day 14,156.9 ± 51.3 mm^3
same,Inhibition rate (%) of tumor volume,[5]; day 14,45.8%
same,Inhibition rate (%) of tumor weight,[5]; day 14,48.0%
